This is an account of results in article PMC3351436, “Direct and Allosteric Inhibition of the FGF2/HSPGs/FGFR1 Ternary Complex Formation by an Antiangiogenic, Thrombospondin-1-Mimic Small Molecule” (PLoS ONE, 2012).

Test [1] relates to endothelial cells. The arrangement: method as in PMID 20056600. Conditions: cited from earlier work.
Test [2] relates to endothelial cells. The arrangement: method as in PMID 20056600. Conditions: cited from earlier work. The source holds these as a separate data set.
Test [3] addresses T1, HSPGs low affinity receptors on BAEC (Homo sapiens, UniProt P09038).
T1 construct: endogenous in cells; host or cells: BAEC
The experiment in a line: Binding of Eu-FGF2 to endothelial cells (BAEC), low affinity receptors. The format is cell-based, bovine. The settings on record: Eu-FGF2 10 ng/ml. Here is the method: (§1) It was possible to discriminate between FGF2 bound to HSPGs low affinity receptors and FGF2 bound to the high affinity FGFR1, following a previously reported procedure.
(§2) Binding to low and high affinity receptors was analyzed according to [31].
(§3) Binding of FGF2 to cells. Europium-labeled FGF2 (Eu-FGF2) was prepared as previously described. Endothelial cells (BAEC), naturally expressing both HSPGs and FGFR1, CHO-K1 and FGFR1-expressing A745 CHO cells were used. Subconfluent cell cultures in 96-well plates were washed and incubated for 30 min at 277K in serum-free DMEM with 0.15% gelatin and 25mM HEPES (DMEM-gelatin). […] The plate was incubated for 2 h at 277K. Wells were washed with cold DMEM-gelatin to remove unbound FGF2, and the amount of total bound FGF2 was detected by adding DELFIA^? Enhancement Solution (100 µl, PerkinElmer), and measuring time resolved fluorescence using a Victor^3 multilabel plate reader (PerkinElmer), as described.

Test [4] concerns the target T2, FGFR1 on A745 CHO flg-1A cells (Homo sapiens, UniProt P09038).
T2 construct: expressed in transfected cells; host or cells: A745 CHO (HSPG-deficient), clone flg-1A
The experiment in a line: Binding of Eu-FGF2 to FGFR1-transfected A745 CHO flg-1A cells (HSPG-deficient). The format is cell-based, murine. How it is done: as §1, §2
Cell cultures. Wild-type CHO-K1 cells and the derived HSPG-deficient A745 CHO cell mutants, kindly provided by J. D. Esko (La Jolla, CA), were grown in Ham's F-12 medium supplemented with 10% fetal calf serum (FCS). […] Bovine aortic endothelial cells (BAEC) [30]were cultured in DMEM supplemented with 10% FCS.
as §3

In test [5] the test system is chicken chorioallantoic membrane. The arrangement: method as in PMID 20056600. Conditions: chicken chorioallantoic membrane assay; cited from earlier work.
In test [6] the target is T3, FGF2/heparin interaction (Homo sapiens, UniProt P09038).
T3 construct: made in house
T3 sequence (P09038 134-288): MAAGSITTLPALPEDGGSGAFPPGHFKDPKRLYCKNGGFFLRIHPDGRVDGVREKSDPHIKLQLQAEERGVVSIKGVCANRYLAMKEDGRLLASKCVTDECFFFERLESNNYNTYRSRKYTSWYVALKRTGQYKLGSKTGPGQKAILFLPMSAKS
Briefly: SPR competition: FGF2 binding to surface-immobilized heparin. The settings on record: FGF2 150 nM injected over immobilized heparin, read-out: IC50, prevention of FGF2/heparin interaction.
Experimental: SPR measurements were performed on a BIAcore X instrument (GE-Healthcare, WI). Heparin was immobilized onto the SPR chip as described [30], allowing the immobilization of 80 resonance units (RU) (6.0 fmol/mm^2).
Surface plasmon resonance (SPR) analysis. SPR measurements were performed on a BIAcore X instrument (GE-Healthcare, WI). Heparin was immobilized onto the SPR chip as already described [27]. Briefly, a CMD50L sensorchip (Xantec Bioanalytics, Dusseldorf, Germany) activated with 50 µl of a mixture containing 0.2 M EDC and 0.5 M NHS was coated with streptavidin. Heparin was biotinylated at its reducing end and immobilized onto the streptavidin-coated sensorchip, allowing the immobilization of 80 resonance units (RU) (6.0 fmol/mm^2 of heparin). A streptavidin-coated sensorchip was used as reference and for blank subtraction. […] After every run, the sensorchip was regenerated by injection of HBS containing 2.0 M NaCl.

Test [7] has as its target T4, FGF2/FGFR1/HSPGs complex (Homo sapiens, UniProt P09038).
T4 construct: expressed in transfected cells; host or cells: A745 CHO flg-1A cells on fixed CHO-K1 monolayer
Briefly: FGF2-mediated cell-cell adhesion assay (A745 CHO flg-1A cells on CHO-K1 monolayer). It is filed as cell-based. Conditions: FGF2 1.66 nM, 2 h incubation, serum-free medium; read-out: ID50, inhibition of FGF2-mediated cell-cell adhesion. How it is done:
(§4) Each point is the mean ± SEM of 3 separate experiments. […] C) Binding of Eu-FGF2 to endothelial cells (BAEC). […] After 2 h of incubation at 298K, the cells bound to the monolayer were counted under an inverted microscope. Each point is the mean ± SEM of 3 separate experiments performed in triplicate. In B and C, black and white arrows indicate the inhibitions obtained with heparin (0.1 µg/ml) and unlabeled FGF2 (1.5 µg/ml) used as reference competitor of HSPGs and FGFR1 binding, respectively
To exert its pro-angiogenic activity, FGF2 needs to set up a productive, ternary complex with HSPGs and FGFR1 [32].
Data are mean bound cells in three random microscopic fields.
FGF2-mediated cell-cell adhesion assay: This assay was performed as described previously, with minor modifications. Briefly, monolayers of wild-type CHO-K1 cells were washed with PBS and fixed with 3% glutaraldehyde in PBS for 2 h at 277K followed by washing with 0.1 M glycine, and PBS. […] After 2 h of incubation at 310K, unattached cells were removed by PBS washing and A745 CHO flg-1A cells bound to the CHO-K1 monolayer were counted under an inverted microscope at ×125 magnification. Data are expressed as the mean of the cell counts of three microscopic fields chosen at random. All experiments were performed in triplicate and repeated twice.

Test [8] addresses T5, FGF2 (Homo sapiens, UniProt P09038, A136E/C211S/C229S/S138E).
T5 construct: purchased ASLA (Riga, Latvia)
The experiment in a line: NMR 15N-1H HSQC titration of sm27 into FGF2. The format is binding. Conditions: 0:1 to 4:1 sm27:FGF2, pH 5.5, 298 K.
Experimental: All NMR data were collected on a Bruker DMX 500 MHz spectrometer at 298 K.
NMR samples contained 0.57 mM ^15N-labeled FGF2, dissolved in a buffer containing 50 mM potassium phosphate, 2 mM NaN3, and 10 mM deuterated DTT in 90% H2O/10% D2O, pH 5.5. […] At molar ratios higher than 1:1, partial sample precipitation was observed, till full sample precipitation at nominal 4:1 ratio. […] Due to the precipitation it was not possible to reach the plateau of the titration and to estimate the real stoichiometric ratio at each step.

The target in test [9] is T6, HSPGs on CHO-K1 cells (Homo sapiens, UniProt P09038).
T6 construct: endogenous in cells; host or cells: CHO-K1
T6 sequence (P09038 134-288): as above
Briefly: Binding of Eu-FGF2 to wild-type CHO-K1 cells (expressing HSPGs but not FGFR1). The format is cell-based. Here is the method:
as §1, §2, §3

For test [10], the target named is T7, high affinity FGFR1 on BAEC (Homo sapiens, UniProt P09038).
T7 construct: endogenous in cells; host or cells: BAEC
T7 sequence (P09038 134-288): as above
Briefly: Binding of Eu-FGF2 to endothelial cells (BAEC), high affinity receptors. The format is cell-based, bovine. Conditions: Eu-FGF2 10 ng/ml, after 2 M NaCl wash. Here is the method: as §1, §2, §3

Test [11] concerns the target T8, FGF2/FGFR1 interaction (Homo sapiens, UniProt P09038).
T8 construct: purchased ReliaTech
The experiment in a line: SPR competition: FGF2 binding to substrate-immobilized FGFR1. The settings on record: FGF2 150 nM injected over immobilized FGFR1, read-out: ID50, prevention of FGF2/FGFR1 interaction. Here is the method: as §4
SPR measurements were performed on a BIAcore X instrument (GE-Healthcare, WI). Heparin was immobilized onto the SPR chip as described, allowing the immobilization of 80 resonance units (RU) (6.0 fmol/mm^2). Immobilization of FGFR (13,800 RU, 42.0 fmol/mm^2), is described in the Supporting Information S1. Sensorchips coated with streptavidin or FGF-unrelated noggin protein were used for blank subtraction (respectively for heparin and FGFR-1).
Surface plasmon resonance (SPR) analysis. SPR measurements were performed on a BIAcore X instrument (GE-Healthcare, WI). Heparin was immobilized onto the SPR chip as already described. Briefly, a CMD50L sensorchip (Xantec Bioanalytics, Dusseldorf, Germany) activated with 50 µl of a mixture containing 0.2 M EDC and 0.5 M NHS was coated with streptavidin. […]

pIC50: −log10 of the molar value.

T2 sequence (P09038 134-288): as above
T8 sequence (P09038 134-288): as above
T4 sequence (P09038 134-288, one chain of several): as the sequence (P09038 134-288) above
T1 sequence (P09038 134-288): as above
T5 sequence (P09038 134-288 A136E/S138E/C211S/C229S): as the sequence (P09038 134-288) above, with A3E, S5E, C78S, C96S counted along it

Turning to `O=C(Nc1ccc2cc(S(=O)(=O)O)cc(O)c2c1)Nc1ccc2cc(S(=O)(=O)O)cc(O)c2c1` [sm27, 4-hydroxy-6-((((8-hydroxy-6-sulfo-2-naphthyl)amino)carbonyl)amino)-2-naphthalenesulfonic acid], the “Effect on FGF2-induced endothelial cell proliferation” value in test [1] is listed as “inhibited”. The “Effect on binding of FGF2 to endothelial cells” value in test [2] is reported as “prevented”. Moreover, the “Effect on FGF2 binding to HSPGs low affinity receptors” value in test [3] was “inhibited”. Also, in test [4] (A745 CHO flg-1A cells, Eu-FGF2 10 ng/ml), the “Effect on Eu-FGF2 binding to FGFR1” value is listed as “inhibited”. In addition, the “Effect on FGF2-induced angiogenesis” value in test [5] is reported as “inhibited”. Also, the pIC50 in test [6] is 5.46; in test [7], 6.00; in test [11], 5.40. The “Binding to FGF2 judged from the NMR titration (exchange regime)” value in test [8] is “weak binding”. Besides, in test [9] (Eu-FGF2 10 ng/ml), the “Effect on Eu-FGF2 binding to HSPGs” value is given as “inhibited”. Further, in [10], the “Effect on FGF2 binding to high affinity FGFR1” value is listed as “inhibited”.

Take heparin [reference compound]: in test [9] (heparin 0.1 µg/ml), the “Effect of reference competitor on Eu-FGF2 binding to HSPGs” value is reported as “inhibitory activity”.

Regarding “unlabelled FGF2: Human recombinant FGF2, unlabeled, reference competitor of FGFR1 binding [reference compound]”, in test [4] (FGFR1-CHO cells, unlabeled FGF2 1.5 µg/ml), the “Effect of reference competitor on Eu-FGF2 binding to FGFR1” value is on record as “inhibitory activity”.
